Measured values as given in patent US20100184596A1, “METHOD FOR THE CONTROL OF WEEDS IN TURF” (SYNGENTA CROP PROTECTION, INC., priority 2007, published 2010).

Tests used:
Format in all cases: in vivo
Tall fescue = assay: Selective post-emergence herbicidal action, field trial Hudson (Table B1.2); conditions: 28 days after application
Description: (§1) The selectivity of the compound of formula I in turf (removal of grassy and broadleaf weeds) has been tested in turfgrass varieties selected from Kentucky bluegrass, tall fescue and perennial ryegrass and in […] selected from clover (an aggressive perennial weed) and dandelion (a weed of perennial horticultural crops and gardens which may also be a problem in some annual crops, particularly where reduced tillage is practiced).
(§2) The trials were conducted in Champaign, Ill., U.S. (Table B1.1) and Hudson, N.Y., U.S. (Table B1.2) under field conditions. Turfgrasses were maintained at approximately a 2.5″ height, like a home lawn. Mixed turf and weed stands were present. The test compounds were applied with a CO2 pressurized backpack sprayer by spraying in the form of an aqueous suspension (prepared from a wettable powder) in a concentration of 210 to 280 g/ha. The plots were then mowed and irrigated as needed. After 22 and 28 days respectively, the test is visually evaluated (100%=total damage to plant; 0%=no damage to plant).

Dandelion = assay: as above; conditions: 28 days after application
Description: as §1, §2

[1] = test system: St. Augustinegrass v. Delmar; assay: Phytotoxicity via granule application (Table B3.1)
[2] = test system: Hydrocotyle sp. (dollarweed); assay: Weed control in combination with safeners, post emergence spray, in St. Augustinegrass v. Delmar (Table B7.1); conditions: no safener, 100 g ai/ha
Description: (§3) The weed control efficacy of the compound of formula I in combination with various safeners was tested. The combinations were applied by post emergence spray application. Percentage weed control assessments were taken at various timepoints.

[3] = test system: Bermudagrass v. Tifway 419; assay: Phytotoxicity via granule application (Table B3.2)
[4] = test system: Hydrocotyle sp. (dollarweed); assay: Example B7, conclusion in words
Description: as §3

[5] = test system: Trifolium repens (clover); assay: Weed control via post emergence spray, in bluegrass/fescue mix (Table B5.6)
Description: The weed control efficacy of the compound of formula I was tested. The compound was applied via post emergence spray to a range of weeds, at various rates and spray treatment treatment regimes. Percentage weed control assessments were taken at various timepoints.

[6] = test system: Bermudagrass v. Tifway 419; assay: Phytotoxicity via post emergence spray application (Table B2.3)
Description: The phytotoxicity of the compound of formula I to turfgrass species was tested. The compound was applied via post emergence spray to a range of warm and cool season turfgrass species at various rates and spray treatment treatment regimes. Percentage phytotoxicity assessments were taken at various timepoints.

Zoysiagrass v. Empire = assay: Phytotoxicity in combination with safeners, post emergence spray (Table B4.1); conditions: no safener, 100 g ai/ha
Description: The phytotoxicity to turfgrass of the compound of formula I in combination with various safeners was tested. The combinations were applied by post emergence spray application. Percentage phytotoxicity assessments were taken at various timepoints. The safeners tested in these trials were cloquintocet-mexyl, cyprosulfamide, a compound of formula 2.3, and isoxadifen-ethyl.

[7] = Granule A (inert), 112 g ai/ha, 15 DAT
[8] = Granule A (inert), 112 g ai/ha, 28 DAT
[9] = Granule A (inert), 280 g ai/ha, 28 DAT
[10] = Granule B (fertiliser), 112 g ai/ha, 20 DAT
[11] = Granule B (fertiliser), 112 g ai/ha, 28 DAT
[12] = Granule B (fertiliser), 280 g ai/ha, 15 DAT
[13] = Granule B (fertiliser), 280 g ai/ha, 20 DAT
[14] = Granule B (fertiliser), 280 g ai/ha, 28 DAT

COCCOCc1nc(C(F)(F)F)ccc1C(=O)C1=C(O)C2CCC(C2)C1=O (stereo not shown) [Formula I, 4-Hydroxy-3-[2-(2-methoxyethoxymethyl)-6-trifluoromethylpyridine-3-carbonyl]-bicyclo[3.2.1]oct-3-en-2-one]
% damage (Tall fescue; 210 g/ha): 0% | % damage (Tall fescue; 280 g/ha): 0% | % damage (Dandelion; 210 g/ha): 82.5% | % damage (Dandelion; 280 g/ha): 90% | % phytotoxicity ([1]; Granule A (inert), 112 g ai/ha, 11 DAT): 1.30% | % phytotoxicity [1, 7]: 0.70% | % phytotoxicity [1, 8]: 0.00% | % phytotoxicity ([1]; Granule A (inert), 280 g ai/ha, 20 DAT): 0.00% | % phytotoxicity [1, 9]: 0.00% | % phytotoxicity [1, 10]: 1.30% | % phytotoxicity [1, 11]: 0.00% | % phytotoxicity ([1]; Granule B (fertiliser), 280 g ai/ha, 7 DAT): 36.70% | % phytotoxicity [1, 12]: 11.70% | % phytotoxicity [1, 13]: 5.00% | % phytotoxicity [1, 14]: 1.70% | % phytotoxicity ([1]; Spray, 112 g ai/ha, 7 DAT): 36.70% | % phytotoxicity ([1]; Spray, 112 g ai/ha, 11 DAT): 20.00% | % phytotoxicity ([1]; Spray, 112 g ai/ha, 15 DAT): 9.30% | % phytotoxicity ([1]; Spray, 112 g ai/ha, 20 DAT): 4.00% | % phytotoxicity ([1]; Spray, 112 g ai/ha, 28 DAT): 0.00% | % phytotoxicity ([1]; Spray, 280 g ai/ha, 7 DAT): 60.00% | % phytotoxicity ([1]; Spray, 280 g ai/ha, 11 DAT): 43.30% | % phytotoxicity ([1]; Spray, 280 g ai/ha, 15 DAT): 20.00% | % phytotoxicity ([1]; Spray, 280 g ai/ha, 20 DAT): 10.00% | % phytotoxicity ([1]; Spray, 280 g ai/ha, 28 DAT): 3.30% | % control ([2]; 7 DAT): 41.70% | % control ([2]; 11 DAT): 61.70% | % control ([2]; 18 DAT): 61.70% | % phytotoxicity [3, 7]: 0.00% | % phytotoxicity ([3]; Granule A (inert), 112 g ai/ha, 20 DAT): 0.00% | % phytotoxicity [3, 8]: 0.00% | % phytotoxicity [3, 9]: 0.00% | % phytotoxicity ([3]; Granule B (fertiliser), 112 g ai/ha, 11 DAT): 4.00% | % phytotoxicity ([3]; Granule B (fertiliser), 112 g ai/ha, 15 DAT): 0.00% | % phytotoxicity [3, 10]: 0.00% | % phytotoxicity [3, 11]: 0.00% | % phytotoxicity ([3]; Granule B (fertiliser), 280 g ai/ha, 11 DAT): 15.00% | % phytotoxicity [3, 12]: 3.30% | % phytotoxicity [3, 13]: 1.30% | % phytotoxicity [3, 14]: 0.00% | % phytotoxicity ([3]; Spray, 112 g ai/ha, 7 DAT): 30.00% | % phytotoxicity ([3]; Spray, 112 g ai/ha, 11 DAT): 18.30% | % phytotoxicity ([3]; Spray, 112 g ai/ha, 15 DAT): 10.00% | % phytotoxicity ([3]; Spray, 112 g ai/ha, 20 DAT): 3.00% | % phytotoxicity ([3]; Spray, 112 g ai/ha, 28 DAT): 0.00% | % phytotoxicity ([3]; Spray, 280 g ai/ha, 7 DAT): 66.70% | % phytotoxicity ([3]; Spray, 280 g ai/ha, 11 DAT): 25.00% | % phytotoxicity ([3]; Spray, 280 g ai/ha, 15 DAT): 10.00% | % phytotoxicity ([3]; Spray, 280 g ai/ha, 20 DAT): 6.00% | % phytotoxicity ([3]; Spray, 280 g ai/ha, 28 DAT): 0.00% | herbicidal efficacy in presence of a safener, in words [4]: does not significantly effect the herbicidal efficacy | % control ([5]; 10 g ai/ha, 7 DAT): 0.00% | % control ([5]; 10 g ai/ha, 14 DAT): 21.25% | % control ([5]; 10 g ai/ha, 22 DAT): 23.75% | % control ([5]; 10 g ai/ha, 29 DAT): 8.75% | % control ([5]; 10 g ai/ha, 46 DAT): 10.00% | % control ([5]; 20 g ai/ha, 7 DAT): 0.00% | % control ([5]; 20 g ai/ha, 14 DAT): 22.50% | % control ([5]; 20 g ai/ha, 22 DAT): 28.75% | % control ([5]; 20 g ai/ha, 29 DAT): 22.50% | % control ([5]; 20 g ai/ha, 46 DAT): 28.75% | % control ([5]; 40 g ai/ha, 7 DAT): 11.25% | % control ([5]; 40 g ai/ha, 14 DAT): 21.25% | % control ([5]; 40 g ai/ha, 22 DAT): 22.50% | % control ([5]; 40 g ai/ha, 29 DAT): 35.00% | % control ([5]; 40 g ai/ha, 46 DAT): 47.50% | % control ([5]; 80 g ai/ha, 7 DAT): 17.50% | % control ([5]; 80 g ai/ha, 14 DAT): 22.50% | % control ([5]; 80 g ai/ha, 22 DAT): 30.00% | % control ([5]; 80 g ai/ha, 29 DAT): 52.50% | % control ([5]; 80 g ai/ha, 46 DAT): 81.25% | % control ([5]; 160 g ai/ha, 7 DAT): 22.50% | % control ([5]; 160 g ai/ha, 14 DAT): 27.50% | % control ([5]; 160 g ai/ha, 22 DAT): 41.25% | % control ([5]; 160 g ai/ha, 29 DAT): 76.25% | % control ([5]; 160 g ai/ha, 46 DAT): 91.25% | % phytotoxicity ([6]; 1 appl, 140 g ai/ha, 8 DAT): 36.25% | % phytotoxicity ([6]; 1 appl, 140 g ai/ha, 14 DAT): 28.75% | % phytotoxicity ([6]; 1 appl, 140 g ai/ha, 29 DAT): 1.25% | % phytotoxicity ([6]; 1 appl, 140 g ai/ha, 35 DAT): 0.00% | % phytotoxicity ([6]; 1 appl, 140 g ai/ha, 43 DAT): 0.00% | % phytotoxicity ([6]; 1 appl, 140 g ai/ha, 51 DAT): 0.00% | % phytotoxicity ([6]; 1 appl, 140 g ai/ha, 60 DAT): 0.00% | % phytotoxicity ([6]; 1 appl, 280 g ai/ha, 8 DAT): 35.00% | % phytotoxicity ([6]; 1 appl, 280 g ai/ha, 14 DAT): 52.50% | % phytotoxicity ([6]; 1 appl, 280 g ai/ha, 29 DAT): 1.25% | % phytotoxicity ([6]; 1 appl, 280 g ai/ha, 35 DAT): 0.00% | % phytotoxicity ([6]; 1 appl, 280 g ai/ha, 43 DAT): 0.00% | % phytotoxicity ([6]; 1 appl, 280 g ai/ha, 51 DAT): 0.00% | % phytotoxicity ([6]; 1 appl, 280 g ai/ha, 60 DAT): 0.00% | % phytotoxicity ([6]; 2 appl, 140 g ai/ha, 8 DAT): 26.25% | % phytotoxicity ([6]; 2 appl, 140 g ai/ha, 14 DAT): 31.25% | % phytotoxicity ([6]; 2 appl, 140 g ai/ha, 29 DAT): 0.00% | % phytotoxicity ([6]; 2 appl, 140 g ai/ha, 35 DAT): 30.00% | % phytotoxicity ([6]; 2 appl, 140 g ai/ha, 43 DAT): 18.75% | % phytotoxicity ([6]; 2 appl, 140 g ai/ha, 51 DAT): 7.50% | % phytotoxicity ([6]; 2 appl, 140 g ai/ha, 60 DAT): 0.00% | % phytotoxicity ([6]; 2 appl, 280 g ai/ha, 8 DAT): 36.25% | % phytotoxicity ([6]; 2 appl, 280 g ai/ha, 14 DAT): 52.50% | % phytotoxicity ([6]; 2 appl, 280 g ai/ha, 29 DAT): 3.75% | % phytotoxicity ([6]; 2 appl, 280 g ai/ha, 35 DAT): 28.75% | % phytotoxicity ([6]; 2 appl, 280 g ai/ha, 43 DAT): 22.50% | % phytotoxicity ([6]; 2 appl, 280 g ai/ha, 51 DAT): 8.75% | % phytotoxicity ([6]; 2 appl, 280 g ai/ha, 60 DAT): 0.00% | % phytotoxicity (Zoysiagrass v. Empire; 6 DAT): 11.70% | % phytotoxicity (Zoysiagrass v. Empire; 12 DAT): 63.30% | % phytotoxicity (Zoysiagrass v. Empire; 19 DAT): 68.30% | % phytotoxicity (Zoysiagrass v. Empire; 27 DAT): 51.70% | % phytotoxicity (Zoysiagrass v. Empire; 35 DAT): 40.00%
